From ChEMBL document CHEMBL6134844, “Development of Next-Generation Antimalarial Acridones with Radical Cure Potential” (J Med Chem, 2025)
Active and inactive are the calls of the source. The rule behind the calls is not given here.

Experiments:
Plasmodium falciparum [1] = experiment: Synergistic antiplasmodial activity against multi-drug resistant Plasmodium falciparum Tm90-C2B assessed as fractional inhibitory concentration in presence of tafenoquine; format: functional
Plasmodium falciparum [2] = experiment: Antiplasmodial activity against Plasmodium falciparum Dd2 measured after 72 hrs by drug susceptibility test; format: functional, organism-based; details: Dd2, 72 h
Plasmodium berghei [3] = experiment: In vivo antiplasmodial activity against luciferase expressing liver stage Plasmodium berghei ANKA MRA-868 sporozoites infected in Albino C57BL/6 mouse model assessed as cured mouse at 40 mg/kg, po daily measured after 31 days; format: functional, organism-based; details: time 31.0 day
[4] = mouse, microsomes, 1 h
Plasmodium falciparum [5] = experiment: Ex vivo antiplasmodial activity against clinical isolate Plasmodium falciparum isolated from Ugandan measured after 72 hrs by growth inhibition assay; format: functional, organism-based
[6] = Tmax in male ICR-CD1 mouse plasma at 40 mg/kg, po; format: ADME, organism-based
[7] = Mutagenicity in Salmonella typhimurium TA98 assessed as background reversion rate up to 10 uM with S-9 metabolic activation by AMES test; format: toxicity; details: salmonella enterica subsp. enterica serovar typhimurium
[8] = AUC(0 to infinity) in male ICR-CD1 mouse liver at 40 mg/kg, po; format: ADME, organism-based
[9] = Half life in male ICR-CD1 mouse liver at 40 mg/kg, po; format: ADME, organism-based
[10] = target: Voltage-gated inwardly rectifying potassium channel KCNH2 (Homo sapiens, UniProt Q12809); experiment: Inhibition of hERG expressed in HEK293 cells by manual patch clamp assay; format: toxicity, cell-based
Chain of Voltage-gated inwardly rectifying potassium channel KCNH2 (Q12809 whole entry): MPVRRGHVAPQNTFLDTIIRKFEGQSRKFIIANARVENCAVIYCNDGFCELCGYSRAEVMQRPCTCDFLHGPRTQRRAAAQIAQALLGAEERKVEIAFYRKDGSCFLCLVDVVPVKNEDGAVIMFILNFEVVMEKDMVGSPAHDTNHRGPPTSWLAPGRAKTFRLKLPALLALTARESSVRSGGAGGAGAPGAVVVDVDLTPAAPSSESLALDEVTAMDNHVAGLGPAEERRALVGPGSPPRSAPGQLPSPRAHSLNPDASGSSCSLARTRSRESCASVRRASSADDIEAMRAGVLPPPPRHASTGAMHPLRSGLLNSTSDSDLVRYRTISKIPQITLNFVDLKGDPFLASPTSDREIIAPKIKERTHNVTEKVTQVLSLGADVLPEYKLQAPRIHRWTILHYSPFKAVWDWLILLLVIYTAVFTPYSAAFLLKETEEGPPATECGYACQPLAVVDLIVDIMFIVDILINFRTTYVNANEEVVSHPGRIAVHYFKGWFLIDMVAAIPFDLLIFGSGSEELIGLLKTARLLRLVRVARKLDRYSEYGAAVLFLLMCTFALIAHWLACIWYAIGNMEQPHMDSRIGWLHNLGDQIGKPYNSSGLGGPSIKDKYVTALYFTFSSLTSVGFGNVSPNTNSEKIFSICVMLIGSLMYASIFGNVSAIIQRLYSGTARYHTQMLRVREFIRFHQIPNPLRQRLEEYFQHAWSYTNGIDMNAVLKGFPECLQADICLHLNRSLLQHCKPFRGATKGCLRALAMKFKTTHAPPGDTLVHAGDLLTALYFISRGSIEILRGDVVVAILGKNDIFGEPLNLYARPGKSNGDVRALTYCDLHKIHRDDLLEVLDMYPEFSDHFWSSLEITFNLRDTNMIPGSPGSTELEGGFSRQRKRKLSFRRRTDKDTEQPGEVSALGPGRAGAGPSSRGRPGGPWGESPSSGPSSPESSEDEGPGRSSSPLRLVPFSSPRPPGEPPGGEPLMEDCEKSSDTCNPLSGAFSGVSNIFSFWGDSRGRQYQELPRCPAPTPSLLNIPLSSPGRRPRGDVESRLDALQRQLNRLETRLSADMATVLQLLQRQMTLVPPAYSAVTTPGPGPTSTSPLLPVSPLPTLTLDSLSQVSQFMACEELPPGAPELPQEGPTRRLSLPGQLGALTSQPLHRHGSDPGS

Plasmodium falciparum [11] = experiment: Antiplasmodial activity against AART-resistant Plasmodium falciparum DR4 measured after 72 hrs by drug susceptibility test; format: functional, organism-based; details: DR4, 72 h
Plasmodium berghei [12] = experiment: In vivo antiplasmodial activity against luciferase expressing liver stage Plasmodium berghei ANKA MRA-868 sporozoites infected in Albino C57BL/6 mouse model assessed as visible parasites at 40 mg/kg, po daily measured 24 to 48 hrs by real-time In Vivo Imaging System (IVIS); format: functional, organism-based; details: time 24-48 hrs
[13] = Toxicity in CF1 mouse infected with asexual blood-stage (ABS) Plasmodium yoelii MRA-428 assessed as hyperactivity at 0.3 to 30 mg/kg, po treated 24 hrs post infection measured after 4 days; format: organism-based; details: in vivo, 96 h, dose 0.3-30 mg/kg, time 4 day
[14] = AUClast in male ICR-CD1 mouse plasma at 40 mg/kg, po; format: ADME, organism-based
Plasmodium falciparum [15] = experiment: Antiplasmodial activity against AART-resistant Plasmodium falciparum DR1 measured after 72 hrs by drug susceptibility test; format: functional, organism-based; details: DR1, 72 h
Plasmodium falciparum [16] = experiment: Antiplasmodial activity against asexual blood-stage (ABS) ATV-resistant clinical isolate Plasmodium falciparum Tm90-C2B infected in human erythrocytes assessed as reduction in fluorescence measured after 72 hrs by Malaria SYBR Green I-based Fluorescence (MSF) assay; format: functional, organism-based; details: Erythrocyte
[17] = AUClast in male ICR-CD1 mouse liver at 40 mg/kg, po; format: ADME, organism-based
Plasmodium falciparum [18] = experiment: Synergistic antiplasmodial activity against pan-sensitive Plasmodium falciparum D6 assessed as fractional inhibitory concentration in presence of tafenoquine; format: functional
[19] = AUCextrap in male ICR-CD1 mouse plasma at 40 mg/kg, po; format: ADME, organism-based
Plasmodium yoelii [20] = experiment: In vivo antiplasmodial activity against asexual blood-stage (ABS) Plasmodium yoelii MRA-428 infected in 4-day suppression CF1 mouse model assessed as reduction in parasitemia by measuring protection at 10 mg/kg, po treated 24 hrs post infection daily for 4 days relative to control; format: functional; design: scale not given: the % may be the effect or the level left
[21] = Apparent oral clearance in male ICR-CD1 mouse plasma at 40 mg/kg, po; format: ADME, organism-based; details: in vivo
[22] = AUC(0 to infinity) in male ICR-CD1 mouse plasma at 40 mg/kg, po; format: ADME, organism-based; details: in vivo
Plasmodium yoelii [23] = experiment: In vivo antiplasmodial activity against asexual blood-stage (ABS) Plasmodium yoelii MRA-428 infected in 4-day suppression CF1 mouse model assessed as reduction in parasitemia treated 24 hrs post infection daily measured on day 4; format: functional
[24] = Half life in male ICR-CD1 mouse plasma at 40 mg/kg, po; format: ADME, organism-based

SMILES | Tmax [6] [h] | Activity [7] | AUC(0-inf) [8] [ng·h/mL] | half-life [9] [h] | Activity (Plasmodium berghei [12]) | Activity [13] | AUC(0-t) [14] [ng·h/mL] | IC50 (Plasmodium falciparum [16]) [nM] | AUC(0-t) [17] [ng·h/mL] | other results
O=c1c2c([nH]c3cc(Oc4ccc(OC(F)(F)F)cc4)ccc13)CCCC2 | 1 | Non-toxic | 33000 | 2.84 | Active | Non-toxic | 472 | 0.295 | 32900 | FIC (Plasmodium falciparum [1]): 0.76; IC50 (Plasmodium falciparum [2]): 2.06 nM; Activity (Plasmodium berghei [3]): Active; Out Of 5 - 5 Mouse Cured; t1/2 [4]: 0.197 h; IC50 (Plasmodium falciparum [5]): 10.5 nM; IC50 [10]: > 10000 nM; IC50 (Plasmodium falciparum [11]): 5.35 nM; IC50 (Plasmodium falciparum [15]): 5.26 nM; FIC (Plasmodium falciparum [18]): 0.81
O=c1c2c([nH]c3cc(Oc4ccc(OC(F)(F)F)cc4)c(F)cc13)CCCC2 | 1 | Non-toxic | 5510 | 4.3 | Active | Non-toxic | 167 | 0.384 | 5470 | AUC [19]: 23.7%; Activity (Plasmodium yoelii [20]): 100%; CL/F [21]: 87.98 mL/min/kg; AUC [22]: 219 ng·h/mL; ED50 (Plasmodium yoelii [23]): 1.5 mg/kg; ED90 (Plasmodium yoelii [23]): 4.7 mg/kg; half-life [24]: 3.89 h
